Data from ChEMBL document CHEMBL1201862, “PubChem BioAssay data set” (2004).
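Method: 48-hour compound exposure of cells in 96-well plates, five concentrations, linear interpolation of endpoints. GI50 marks 50% less growth.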 Calls of active or inactive are those of the source. Cut-off read from the data, not from the text of the source: active = GI50 up to about 1.1 µM and inactive = higher.

What was measured:
Assay in all cases: DTP human tumour cell line panel, 48 h
ACHN = test system: ACHN
HL-60 = test system: HL-60
786-0 = test system: 786-0
RXF 393 = test system: RXF 393
SF-539 = test system: SF-539
UO-31 = test system: UO-31
PC-3 = test system: PC-3
OVCAR-3 = test system: OVCAR-3
SNB-19 = test system: SNB-19
CCRF-CEM = test system: CCRF-CEM
Hs-578T = test system: Hs-578T
M14 = test system: M14
OVCAR-8 = test system: OVCAR-8
A549 = test system: A549
TK-10 = test system: TK-10
SK-MEL-28 = test system: SK-MEL-28
MDA-N = test system: MDA-N
UACC-62 = test system: UACC-62
Malme-3M = test system: Malme-3M
HCC 2998 = test system: HCC 2998

Compound | GI50 (ACHN) | GI50 (HL-60) | GI50 (786-0) | GI50 (RXF 393) | GI50 (SF-539) | GI50 (UO-31) | GI50 (PC-3) | GI50 (OVCAR-3) | GI50 (SNB-19) | GI50 (CCRF-CEM) | GI50 (Hs-578T) | GI50 (M14) | GI50 (OVCAR-8) | GI50 (A549) | GI50 (TK-10) | GI50 (SK-MEL-28) | GI50 (MDA-N) | GI50 (UACC-62) | GI50 (Malme-3M) | GI50 (HCC 2998)
Cc1ccc(/N=N/c2ccc(N)cc2C)c(S(N)(=O)=O)c1 | 90.6 µM (inactive) | 29.6 µM (inactive) | > 100 µM (inactive) | > 100 µM (inactive) | > 100 µM (inactive) | 63 µM (inactive) | 89.7 µM (inactive) | 50.4 µM (inactive) | > 100 µM (inactive) | 48.1 µM (inactive) | 63 µM (inactive) | > 100 µM (inactive) | 76.7 µM (inactive) | 50.5 µM (inactive) | 48.9 µM (inactive) | > 100 µM (inactive) | 71.9 µM (inactive) | 88.9 µM (inactive) | > 100 µM (inactive) | –
C#CCSc1nc(-c2ccco2)n[nH]1 | > 100 µM (inactive) | > 100 µM (inactive) | > 100 µM (inactive) | > 100 µM (inactive) | > 100 µM (inactive) | 17.2 µM (inactive) | > 100 µM (inactive) | > 100 µM (inactive) | > 100 µM (inactive) | – | > 100 µM (inactive) | > 100 µM (inactive) | > 100 µM (inactive) | > 100 µM (inactive) | > 100 µM (inactive) | > 100 µM (inactive) | > 100 µM (inactive) | > 100 µM (inactive) | > 100 µM (inactive) | > 100 µM (inactive)
C=CCOC(=O)N1c2ccc(O)cc2[C@@]23O[C@@]24[C@@H]1C#C/C=C\C#C[C@]3(O)C(OC)(OC)C[C@@H]4C | 17.7 µM (inactive) | 32.8 µM (inactive) | 22.2 µM (inactive) | 41.7 µM (inactive) | 21.6 µM (inactive) | 37.2 µM (inactive) | 24 µM (inactive) | – | 58.2 µM (inactive) | 23.6 µM (inactive) | 37.8 µM (inactive) | 23.8 µM (inactive) | 32.5 µM (inactive) | 50.5 µM (inactive) | 29.9 µM (inactive) | 45.1 µM (inactive) | 28.8 µM (inactive) | 33.7 µM (inactive) | 26.8 µM (inactive) | 63.1 µM (inactive)
Cc1cn(C2CC(N=[N+]=[N-])C(C(=O)O)O2)c(=O)[nH]c1=O (stereo not drawn) | > 100 µM (inactive) | > 100 µM (inactive) | > 100 µM (inactive) | > 100 µM (inactive) | > 100 µM (inactive) | > 100 µM (inactive) | > 100 µM (inactive) | > 100 µM (inactive) | > 100 µM (inactive) | > 100 µM (inactive) | > 100 µM (inactive) | > 100 µM (inactive) | > 100 µM (inactive) | > 100 µM (inactive) | > 100 µM (inactive) | – | > 100 µM (inactive) | > 100 µM (inactive) | > 100 µM (inactive) | > 100 µM (inactive)
CC(=O)C12C[C@](C#N)(N3CCCCCC3)C1C=Cc1ccccc12 (stereo partly drawn) | > 100 µM (inactive) | > 100 µM (inactive) | > 100 µM (inactive) | > 100 µM (inactive) | > 100 µM (inactive) | > 100 µM (inactive) | > 100 µM (inactive) | > 100 µM (inactive) | > 100 µM (inactive) | > 100 µM (inactive) | > 100 µM (inactive) | > 100 µM (inactive) | > 100 µM (inactive) | > 100 µM (inactive) | > 100 µM (inactive) | > 100 µM (inactive) | > 100 µM (inactive) | > 100 µM (inactive) | – | > 100 µM (inactive)
Cc1cc(N(CCCl)CCCl)ccc1/C=N/NC(=O)Cc1cc(=O)oc2cc(O)ccc12 | 6.67 µM (inactive) | 12.2 µM (inactive) | 18.8 µM (inactive) | 16.6 µM (inactive) | 18 µM (inactive) | 22.9 µM (inactive) | 11.9 µM (inactive) | 21.3 µM (inactive) | 18 µM (inactive) | 6.38 µM (inactive) | 17.2 µM (inactive) | 14.3 µM (inactive) | 19.5 µM (inactive) | 12.2 µM (inactive) | – | 12.6 µM (inactive) | 12.7 µM (inactive) | 2.37 µM (inactive) | 12.6 µM (inactive) | 28.2 µM (inactive)
CC(CN(C)C)C(=O)/C=C/c1ccc(Cl)c(Cl)c1 (stereo not drawn) | 1.87 µM (inactive) | 1.62 µM (inactive) | 0.766 µM (active) | 12.6 µM (inactive) | 1.46 µM (inactive) | 1.69 µM (inactive) | 1.04 µM (active) | 1.78 µM (inactive) | 5.43 µM (inactive) | 0.453 µM (active) | 3.69 µM (inactive) | 2.09 µM (inactive) | 1.52 µM (inactive) | 3.33 µM (inactive) | 2.02 µM (inactive) | 3.37 µM (inactive) | 2.07 µM (inactive) | 1.8 µM (inactive) | – | 1.94 µM (inactive)
